Reference: PubChem BioAssay AID248 (DTP/NCI, 2004)
Several values for one entry are separate records, joined by “and”; a condition that tells them apart may be missing. Equal entries are not always repeated. Inconclusive results and toxic doses are left out. Cut-off read from the data, not from the text of the source: active = T/C of 150% or more; inactive = T/C below 125%.

Tested on: L1210 leukemia ip in BDF1 mice, survival T/C
Experiment: NCI In Vivo Anticancer Drug Screen. Data for tumor model L1210 Leukemia (intraperitoneal) in B6D2F1 (BDF1) mice
Conditions: endpoint: mean survival time, higher = longer survival
Procedure: The antitumor activity of compounds was measured in mice bearing transplantable tumors. Survival or tumor size were measured and the results are expressed as the measurement made in the treated group (T) divided by the measurement made in the vehicle treated control group (C). The tumor model used in this assay is L1210 Leukemia (intraperitoneal) in B6D2F1 (BDF1) mice

[1] = dose: 100.0 mg/kg/injection, schedule: Q04DX002 (ip), vehicle: saline with Tween-80
[2] = dose: 200.0 mg/kg/injection, schedule: Q04DX002 (ip), vehicle: saline with Tween-80
[3] = dose: 400.0 mg/kg/injection, schedule: Q04DX002 (ip), vehicle: saline with Tween-80
[4] = dose: 100.0 mg/kg/injection, schedule: Q01DX009 (ip), vehicle: saline
[5] = dose: 200.0 mg/kg/injection, schedule: Q01DX009 (ip), vehicle: saline
[6] = dose: 400.0 mg/kg/injection, schedule: Q01DX009 (ip), vehicle: saline
[7] = dose: 100.0 mg/kg/injection, schedule: Q04DX003 (ip), vehicle: saline
[8] = dose: 50.0 mg/kg/injection, schedule: Q01DX001 (ip), vehicle: carboxymethylcellulose (CMC)
[9] = dose: 100.0 mg/kg/injection, schedule: Q01DX001 (ip), vehicle: carboxymethylcellulose (CMC)
[10] = dose: 200.0 mg/kg/injection, schedule: Q01DX001 (ip), vehicle: carboxymethylcellulose (CMC)
[11] = dose: 400.0 mg/kg/injection, schedule: Q01DX001 (ip), vehicle: carboxymethylcellulose (CMC)
[12] = dose: 100.0 mg/kg/injection, schedule: Q01DX001 (ip), vehicle: saline
[13] = dose: 200.0 mg/kg/injection, schedule: Q01DX001 (ip), vehicle: saline
[14] = dose: 400.0 mg/kg/injection, schedule: Q01DX001 (ip), vehicle: saline
[15] = dose: 50.0 mg/kg/injection, schedule: Q01DX001 (ip), vehicle: saline
[16] = dose: 100.0 mg/kg/injection, schedule: Q04DX003 (ip), vehicle: saline with Tween-80
[17] = dose: 200.0 mg/kg/injection, schedule: Q04DX003 (ip), vehicle: saline with Tween-80
[18] = dose: 400.0 mg/kg/injection, schedule: Q04DX003 (ip), vehicle: saline with Tween-80

Measured: T/C

CC1=CCCCC1O (stereo not given)
inactive: [1] 93 % of control | [2] 96 % of control | [3] 93 % of control

CCn1c(=S)[nH]c2ccccc2c1=O
inactive: [1] 98 % of control | [2] 109 % of control | [3] 102 % of control

CCCCCOC(=O)C1(C)OC1c1ccccc1 (stereo not given)
inactive: dose: 100.0 mg/kg/injection, schedule: Q04DX002 (ip), vehicle: saline 108 % of control | dose: 200.0 mg/kg/injection, schedule: Q04DX002 (ip), vehicle: saline 93 % of control | dose: 400.0 mg/kg/injection, schedule: Q04DX002 (ip), vehicle: saline 93 % of control

O=C1NC(=O)C(c2ccccc2)C1=O (stereo not given)
inactive: dose: 50.0 mg/kg/injection, schedule: Q01DX Z (ip), vehicle: other 105 % of control | dose: 100.0 mg/kg/injection, schedule: Q01DX Z (ip), vehicle: other 96 % of control | dose: 200.0 mg/kg/injection, schedule: Q01DX Z (ip), vehicle: other 91 % of control | dose: 400.0 mg/kg/injection, schedule: Q01DX Z (ip), vehicle: other 89 % of control

CCOC(=O)NO
inactive: dose: 27.0 mg/kg/injection, schedule: Q03HX024 (ip), vehicle: saline 95 % of control | dose: 40.0 mg/kg/injection, schedule: Q03HX024 (ip), vehicle: saline 97 % of control | dose: 50.0 mg/kg/injection, schedule: Q01DX Z (ip), vehicle: carboxymethylcellulose (CMC) 93 % of control | dose: 60.0 mg/kg/injection, schedule: Q03HX024 (ip), vehicle: saline 100 % of control | dose: 90.0 mg/kg/injection, schedule: Q03HX024 (ip), vehicle: saline 100 % of control | [4] 97 % of control and 98 % of control | dose: 100.0 mg/kg/injection, schedule: Q01DX Z (ip), vehicle: carboxymethylcellulose (CMC) 109 % of control | dose: 120.0 mg/kg/injection, schedule: Q01DX009 (ip), vehicle: saline 110 % of control | dose: 135.0 mg/kg/injection, schedule: Q03HX024 (ip), vehicle: saline 124 % of control | dose: 180.0 mg/kg/injection, schedule: Q01DX009 (ip), vehicle: saline 119 % of control | [5] 95 % of control and 100 % of control | [6] 102 % of control and 107 % of control | dose: 600.0 mg/kg/injection, schedule: Q01DX009 (ip), vehicle: saline 117 % of control

S=C(Nc1ccc(Cl)c(Cl)c1)SCc1ccc(Cl)cc1
inactive: dose: 25.0 mg/kg/injection, schedule: Q04DX003 (ip), vehicle: saline 104 % of control | dose: 50.0 mg/kg/injection, schedule: Q04DX003 (ip), vehicle: saline 101 % of control | [7] 104 % of control

COc1cccc(C2=CCCCC2)c1
inactive: [8] 96 % of control | [9] 93 % of control | [10] 96 % of control | [11] 98 % of control

Cc1ccnc(NC(=O)NCCCl)c1
inactive: [9] 103 % of control | [10] 108 % of control | [11] 108 % of control

CC1CC2CCCC(O)=C2C(=O)O1 (stereo not given)
inactive: [12] 102 % of control | [13] 102 % of control | [14] 105 % of control

CC(=O)c1ccccc1C(C)c1ccc(C)c2ccccc12 (stereo not given)
inactive: dose: 100.0 mg/kg/injection, schedule: Q04DX002 (ip), vehicle: Klucel (hydroxypropylcellulose) (HPC) 120 % of control | dose: 200.0 mg/kg/injection, schedule: Q04DX002 (ip), vehicle: Klucel (hydroxypropylcellulose) (HPC) 97 % of control | dose: 400.0 mg/kg/injection, schedule: Q04DX002 (ip), vehicle: Klucel (hydroxypropylcellulose) (HPC) 104 % of control

CCCCCCCCCC1OOC1(C)C (stereo not given)
inactive: dose: 50.0 mg/kg/injection, schedule: Q01DX001 (ip), vehicle: water 97 % of control | dose: 100.0 mg/kg/injection, schedule: Q01DX001 (ip), vehicle: water 93 % of control | dose: 200.0 mg/kg/injection, schedule: Q01DX001 (ip), vehicle: water 93 % of control

O=S(=O)(ON1C=CC=CC1)ON1C=CC=CC1
inactive: dose: 25.0 mg/kg/injection, schedule: Q04DX002 (ip), vehicle: saline with Tween-80 106 % of control | dose: 50.0 mg/kg/injection, schedule: Q04DX002 (ip), vehicle: saline with Tween-80 95 % of control | [1] 106 % of control

O=[N+]([O-])c1ccc(C(SCc2ccccc2)SCc2ccccc2)cc1
inactive: dose: 75.0 mg/kg/injection, schedule: Q01DX001 (ip), vehicle: carboxymethylcellulose (CMC) 97 % of control | dose: 150.0 mg/kg/injection, schedule: Q01DX001 (ip), vehicle: carboxymethylcellulose (CMC) 100 % of control | dose: 300.0 mg/kg/injection, schedule: Q01DX001 (ip), vehicle: carboxymethylcellulose (CMC) 97 % of control

Cc1ccc(S(=O)(=O)OC2COCOC2)cc1
inactive: dose: 100.0 mg/kg/injection, schedule: Q01DX009 (ip), vehicle: saline with Tween-80 110 % of control | dose: 200.0 mg/kg/injection, schedule: Q01DX009 (ip), vehicle: saline with Tween-80 102 % of control | dose: 400.0 mg/kg/injection, schedule: Q01DX009 (ip), vehicle: saline with Tween-80 91 % of control

c1ccc(-c2nc3nnnn3nc2-c2ccccc2)cc1
inactive: [15] 100 % of control | [12] 103 % of control | [13] 98 % of control

CC(C)(C(=O)O)c1ccc(-c2ccccc2)cc1
inactive: [16] 102 % of control | [17] 97 % of control | [18] 106 % of control

CN(C)c1nc(N)nc(Nc2ccc(Br)cc2)c1N=O
inactive: [8] 109 % of control | [9] 95 % of control | [12] 105 % of control | [4] 107 % of control | [7] 107 % of control | [10] 103 % of control | [13] 116 % of control | [5] 119 % of control | dose: 200.0 mg/kg/injection, schedule: Q04DX003 (ip), vehicle: saline 98 % of control | [11] 95 % of control | [14] 116 % of control | [6] 109 % of control | dose: 400.0 mg/kg/injection, schedule: Q04DX003 (ip), vehicle: saline 96 % of control

COc1cc(/C=C2\CCOC2=O)c([N+](=O)[O-])cc1OC
inactive: [8] 96 % of control | [9] 94 % of control | [10] 94 % of control | [11] 90 % of control

CC(=O)Nc1ccc2c(c1)C(=O)c1cc(F)ccc1-2
inactive: [16] 100 % of control | [17] 96 % of control | [18] 110 % of control

O=[N+]([O-])c1cc2cc(Br)ccc2o1
inactive: dose: 12.5 mg/kg/injection, schedule: Q04DX002 (ip), vehicle: Klucel (hydroxypropylcellulose) (HPC) 102 % of control | dose: 25.0 mg/kg/injection, schedule: Q04DX002 (ip), vehicle: Klucel (hydroxypropylcellulose) (HPC) 106 % of control | dose: 50.0 mg/kg/injection, schedule: Q04DX002 (ip), vehicle: Klucel (hydroxypropylcellulose) (HPC) 97 % of control

CCCCSc1nc(=O)[nH]nc1SCc1ccccc1
inactive: [12] 98 % of control | [13] 93 % of control | [14] 95 % of control

O=C(O)C1CCCN1Cc1cc2ccccc2c2ccccc12 (stereo not given)
inactive: [15] 112 % of control | [12] 96 % of control | [13] 96 % of control | [14] 96 % of control
